Literature values in patent US20220184070A1, “LOW-DOSE TRIPLE COMBINATION FORMULATION” (The George Institute for Global Health, priority 2019, published 2022).
Marks after values point to notes of the source that are not given here.

Tested on: plasma glucose

Compound: N[C@@H](CC(=O)N1CCn2c(nnc2C(F)(F)F)C1)Cc1cc(F)c(F)cc1F [Sitagliptin, sitagliptin]
- Percentage change in plasma glucose from pre-prandial adjusted for placebo, at 2 h PPG (single dose 100 mg monotherapy, published studies): −6.3%
- Difference in mean 2 h post-prandial glucose (PPG) vs placebo (single dose 100 mg, 180 min, FIG. 4): ~1 mmol/L
- Maximum difference in plasma glucose between sitagliptin and placebo (single dose 100 mg, at 120 min post-dose (90 min post-meal), FIG. 4): 1.5 mmol/L
- Percentage change in plasma glucose from pre-prandial adjusted for placebo, Maximum (single dose 100 mg, maximum achieved at 1.5 h post-prandial, published studies): −20.3^a %
- Time at which maximum PPG and serum insulin were achieved (single dose 100 mg, post-dose (0.5 h post-meal), FIG. 4): ~1 h
